Reference: patent US9758472B2, “Non-lactone carbocyclic and heterocyclic antagonists and agonists of bacterial quorum sensing” (WISCONSIN ALUMNI RESEARCH FOUNDATION, priority 2009, dated 2017)

Experiments:
[1] = target: T1, LasR (Pseudomonas aeruginosa, UniProt P25084); assay: LasR agonism assay, P. aeruginosa PA01 MW1 (pUM15) YFP reporter strain; format: cell-based; settings: for Act %: thiolactone libraries, P. aeruginosa, synthetic ligands tested at 10 μM; for Agonist, percent of activation compared to the positive control: initial library (FIG. 4), P. aeruginosa PA01 MW1; for EC50: dose response
T1 construct: expressed in transfected cells; host or cells: Escherichia coli DH5α (pJN105L+pSC11)
Experimental: (§1) The black bars are DH5α (pJN105L+pSC11) and the grey bars are PA01 MW1 (pUM15). Agonism positive control=activity of the reporter strain at full turn on for the strain. […] Negative control (Neg)=bacteria in the absence of natural and synthetic ligand. Error bars=standard deviation of the mean of triplicate samples.
(§2) The initial library was tested for LasR agonistic and antagonistic activity in two strains: Escherichia coli DH5α (pJN105L+pSC11) [Lee, J. H.; Lequette, Y.; Greenberg, E. P., Activity of purified QscR, a Pseudomonas aeruginosa orphan quorum-sensing transcription factor. Mol. Microbiol. 2006, 59 (2), 602-609] and P. aeruginosa PA01 MW1 (pUM15) [Muh, U.; Schuster, M.; Heim, R.; Singh, A.; Olson, E.; Greenberg, E. P., Novel Pseudomonas aeruginosa Quorum-Sensing Inhibitors Identified in an Ultra-High-Throughput Screen. Antimicrob. Agents Chemother. 2006, 50, 3674-3679] (FIGS. 5A and 5B). Both strains allow for synthetic autoinducer mimic evaluation and contain a reporter gene that allows for a quantitative readout of QS activity. DH5α (pJN105L+pSC11) is a heterologous β-galactosidase E. coli reporter strain containing a plasmid for the P. aeruginosa LasR gene. The PA01 MW1 (pUM15) strain uses the natural P. aeruginosa background containing a LasI deletion and the gene for yellow fluorescent protein (YFP) under the control of the LasI promoter to evaluate the LasI/R activity. Since the PA01 MW1 (pUM15) strain evaluates LasR in the natural P. aeruginosa background, in contrast to the heterologous E. coli strain, an improved idea of the interplay between the isolated LasI/R system and the combination of LasI/R with other QS subsystems such as QscR can be determined. Furthermore, additional nuances of the natural system such as compound permeability are incorporated in assays using the PA01 MW1 (pUM15) strain.

[2] = target: TraR (Agrobacterium tumefaciens, UniProt P33905); assay: cell-based; format: cell-based; design: and Agrobacterium tumefaciens WCF (pCF372); endogenous in cells; host or cells: Agrobacterium tumefaciens WCF (pCF372); settings: for Inhib %: thiolactone libraries, A. tumefaciens, synthetic ligands tested at 10 μM
Experimental: (§3) The initial library was also tested in Vibrio fischeri ESI 114 (Δ-LuxI) [Lupp, C.; Urbanowski, M.; Greenberg, E. P.; Ruby, E. G., The Vibrio fischeri quorum-sensing systems ain and lux sequentially induce luminescence gene expression and are important for persistence in the squid host. Mol. Microbiol. 2003, 50 (1), 319-331] and Agrobacterium tumefaciens WCF (pCF372). […] J. Bacteriol. 1998, 180 (20), 5398-5405.] […] [Geske, G. D.; O'Neill, J. C.; Miller, D. M.; Mattmann, M. E.; Blackwell, H. E., Modulation of Bacterial Quorum Sensing: Systematic Evaluation of N-Acylated Homoserine Lactones in Multiple Species and New Insights into Their Mechanism of Action. J. Am. Chem. Soc. 2007, 129, 13613-13625.]

[3] = target: T1, LasR; assay: LasR agonism assay, E. coli DH5α (pJN105L+pSC11) β-galactosidase reporter strain; format: cell-based, P. aeruginosa; settings: for Act %: thiolactone libraries, E. coli, synthetic ligands tested at 10 μM; for Agonist, percent of activation compared to the positive control: initial library (FIG. 4); for Agonist, percent of activation compared to the positive control / LasR agonism, in words / EC50: E. coli DH5α (pJN105L+pSC11); for EC50: dose response
Experimental: as §1, §2

[4] = target: LuxR (Aliivibrio fischeri, UniProt P35327); assay: cell-based; format: cell-based, Vibrio fischeri; design: The initial library was also tested in Vibrio fischeri ESI 114 (Δ-LuxI); endogenous in cells; host or cells: Vibrio fischeri ESI 114 (Δ-LuxI); settings: for Inhib %: thiolactone libraries, V. fischeri, synthetic ligands tested at 10 μM; for Antagonism, in words: V. fischeri strain; for Antagonist, percent inhibition compared to a positive control: initial library (FIG. 4); for Antagonist, percent inhibition compared to a positive control / IC50: V. fischeri ESI 114 (Δ-LuxI); for IC50: dose response
Experimental: as §3

[5] = target: T1, LasR; assay: LasR antagonism assay, E. coli DH5α (pJN105L+pSC11) β-galactosidase reporter strain; format: cell-based, P. aeruginosa; settings: thiolactone libraries, synthetic ligands tested at 10 μM
[6] = target: T1, LasR; assay: as above; format: cell-based, P. aeruginosa; settings: dose response; E. coli DH5α (pJN105L+pSC11)
Experimental: FIG. 5B is a bar graph showing the results of […] assay for initial heterocyclic and carbocyclic library (Scheme 1) shown as a percent of the positive control. Antagonism positive control (Pos)=activity of the reporter strain in the absence of synthetic ligand at the EC50 value for the strain. […] Negative control (Neg)=bacteria in the absence of natural and synthetic ligand. Error bars=standard deviation of the mean of triplicate samples.
as §2

Chain of TraR (P33905 whole entry): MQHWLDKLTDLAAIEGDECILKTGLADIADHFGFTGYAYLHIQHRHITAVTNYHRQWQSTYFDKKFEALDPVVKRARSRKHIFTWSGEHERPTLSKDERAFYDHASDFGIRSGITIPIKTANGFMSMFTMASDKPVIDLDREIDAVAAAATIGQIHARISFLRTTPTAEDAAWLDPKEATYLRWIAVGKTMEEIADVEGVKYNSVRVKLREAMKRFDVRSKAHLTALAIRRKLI
T1 sequence (P25084 whole entry): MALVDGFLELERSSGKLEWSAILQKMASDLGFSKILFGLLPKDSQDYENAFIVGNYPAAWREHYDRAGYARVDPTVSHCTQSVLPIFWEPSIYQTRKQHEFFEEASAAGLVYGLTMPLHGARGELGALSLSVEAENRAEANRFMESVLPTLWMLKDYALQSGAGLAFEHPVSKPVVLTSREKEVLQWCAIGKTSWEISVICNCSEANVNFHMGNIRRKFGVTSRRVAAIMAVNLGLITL
Chain of LuxR (P35327 whole entry): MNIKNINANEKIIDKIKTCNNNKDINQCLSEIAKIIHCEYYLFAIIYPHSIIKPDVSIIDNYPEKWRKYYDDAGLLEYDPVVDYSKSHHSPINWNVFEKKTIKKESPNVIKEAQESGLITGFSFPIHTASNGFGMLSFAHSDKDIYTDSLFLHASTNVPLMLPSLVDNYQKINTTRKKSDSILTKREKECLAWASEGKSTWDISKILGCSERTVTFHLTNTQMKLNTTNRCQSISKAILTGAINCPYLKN

| SMILES | Act % [1] | Inhib % [2] | Act % [3] | Inhib % [4] | Inhib % [5] | other results |
| --- | --- | --- | --- | --- | --- | --- |
| O=C(Cc1ccc(Br)cc1)NC1CCSC1=O (racemic) [Compound 18] | 8% | −60% | 2% | 97% | 80% | – |
| O=C(Cc1cccc([N+](=O)[O-])c1)NC1CCSC1=O (racemic) [Compound 19] | 5% | 33% | 82% | 19% | −13% | – |
| COc1ccc(CC(=O)NC2CCSC2=O)cc1 (racemic) [Compound 20] | 7% | −107% | 1% | 70% | 51% | – |
| O=C(Cc1ccccc1)NC1CCSC1=O (racemic) [Compound 21] | 2% | −22% | 2% | 34% | 65% | – |
| O=C(CCc1c[nH]c2ccccc12)NC1CCSC1=O (racemic) [Compound 22] | 10% | −80% | 4% | 68% | 16% | – |
| O=C(Cc1ccc(-c2ccccc2)cc1)NC1CCSC1=O (racemic) [Compound 23] | 3% | 9% | 9% | 98% | 56% | – |
| CCCCCCCCCC(=O)CC(=O)NC1CCSC1=O (centres unmarked) [Compound 1] | 88% | 92% | 94% | 99% | −40% | Agonist, percent of activation compared to the positive control [1]: 88%; Antagonism, in words ([2]; A. tumefaciens strain): good antagonist; Antagonist, percent inhibition compared to a positive control ([2]; initial library (FIG. 4), A. tumefaciens WCF (pCF372), negative values indicate agonist properties): 65%; Agonist, percent of activation compared to the positive control [3]: 94%; Antagonism, in words [4]: good antagonist; Antagonist, percent inhibition compared to a positive control [4]: 92% |
| CCCCCCCCCC(=O)CC(=O)NC1CCCC1 [Compound 3] | – | – | – | – | – | LasR agonism, in words ([1]; P. aeruginosa PA01 MW1 (pUM15), natural background): agonist; Agonist, percent of activation compared to the positive control [1]: 54.2%; LasR agonism, in words [3]: agonist; Agonist, percent of activation compared to the positive control [3]: 83.5%; Antagonism, in words [4]: modest antagonist; Antagonist, percent inhibition compared to a positive control [4]: 89.4% |
| O=C(Cc1ccc(Br)cc1)N[C@H]1CCSC1=O [Compound 18E] | 5% | 25% | 8% | 91% | 68% | IC50 [6]: 0.4 µM; IC50 [4]: 0.77 µM |
| COc1ccc(CC(=O)N[C@H]2CCSC2=O)cc1 [Compound 20E] | 4% | −24% | 0% | 59% | 48% | IC50 [6]: 7.2 µM |
| O=C(Cc1ccccc1)N[C@H]1CCSC1=O [Compound 21E] | 17% | 13% | 3% | 30% | 61% | IC50 [6]: 2.5 µM |
| O=C(Cc1ccc(-c2ccccc2)cc1)N[C@H]1CCSC1=O [Compound 23E] | 1% | 26% | 0% | 85% | 45% | IC50 [6]: 2.9 µM; IC50 [4]: 0.35 µM |
| CCCCCCCCCCCC(=O)N[C@H]1CCSC1=O [Compound 25E] | 42% | 6% | 4% | 57% | −93% | EC50 ([1]; P. aeruginosa PA01 MW1 (pUM15)): 21 µM; LasR agonism, in words [3]: strong agonists; EC50 [3]: 1.9 µM |
| CCCC(=O)N[C@H]1CCSC1=O [Compound 29E] | 22% | −70% | 4% | 42% | 17% | – |
| CCCC(=O)CC(=O)N[C@H]1CCSC1=O [Compound 30E] | 76% | 93% | 6% | 62% | −119% | EC50 ([1]; P. aeruginosa PA01 MW1 (pUM15)): 13 µM; IC50 ([2]; dose response, A. tumefaciens WCF (pCF372)): 3.2 µM; EC50 [3]: 0.13 µM |
| CCOC(=O)CNC(=O)CCc1cccc(I)c1 [Compound 34] | – | – | – | – | – | Antagonism, in words [4]: excellent antagonistic activity |
